Measurements as given in the OligoGym collection.
HELM strings list units from the 5' end as sugar, base in round brackets, then linkage (d deoxyribose, r ribose, m 2'-O-methyl, p phosphodiester). Strings are as the collection lists them; they lack the last nucleoside at the 3' end of the tested compound. [moe] = 2'-O-(2-methoxyethyl) (MOE); [sp] = phosphorothioate linkage; [m5C] = 5-methylcytosine

What follows are substances tested against ATXN2 (assay: mouse, dose not given). Settings: ASO.

| Substance | 3 h FOB score |
| --- | --- |
| RNA1{[moe](A)[sp].[moe](G)p.[moe](G)p.[moe](T)p.[moe](G)p.d(A)[sp].d(T)[sp].d(G)[sp].d(T)[sp].d(T)[sp].d(T)[sp].d([m5C])[sp].d(A)[sp].d(T)[sp].d(T)[sp].[moe](G)p.[moe](G)p.[moe](G)[sp].[moe](T)}$$$$ (last 3' nucleoside missing) | 4.5 score 0-7 |
| RNA1{[moe](A)[sp].[moe](G)p.[moe](G)p.[moe]([m5C])p.[moe](A)p.d(T)[sp].d(A)[sp].d(A)[sp].d(A)[sp].d(T)[sp].d(T)[sp].d(T)[sp].d([m5C])[sp].d(A)[sp].d(T)[sp].[moe]([m5C])p.[moe](T)p.[moe](T)[sp].[moe](A)}$$$$ (last 3' nucleoside missing) | 0 score 0-7 |
| RNA1{[moe](A)[sp].[moe](G)p.[moe](T)p.[moe](A)p.[moe](A)p.d(A)[sp].d(A)[sp].d(G)[sp].d(T)[sp].d(T)[sp].d(T)[sp].d(T)[sp].d(T)[sp].d([m5C])[sp].d([m5C])[sp].[moe]([m5C])p.[moe](T)p.[moe](T)[sp].[moe](A)}$$$$ (last 3' nucleoside missing) | 3.25 score 0-7 |
| RNA1{[moe](A)[sp].[moe](G)p.[moe](T)p.[moe](A)p.[moe](T)p.d([m5C])[sp].d(T)[sp].d([m5C])[sp].d(A)[sp].d(G)[sp].d(T)[sp].d(T)[sp].d(T)[sp].d(T)[sp].d(T)[sp].[moe](T)p.[moe](T)p.[moe](T)[sp].[moe](T)}$$$$ (last 3' nucleoside missing) | 2 score 0-7 |
| RNA1{[moe](A)[sp].[moe](G)p.[moe](T)p.[moe](G)p.[moe](T)p.d(T)[sp].d(T)[sp].d(G)[sp].d(G)[sp].d(G)[sp].d(A)[sp].d(T)[sp].d(G)[sp].d([m5C])[sp].d(T)[sp].[moe](T)p.[moe]([m5C])p.[moe](A)[sp].[moe](G)}$$$$ (last 3' nucleoside missing) | 6.5 score 0-7 |
| RNA1{[moe](A)[sp].[moe](G)p.[moe](T)p.[moe](T)p.[moe]([m5C])p.d(A)[sp].d([m5C])[sp].d([m5C])[sp].d(T)[sp].d(G)[sp].d([m5C])[sp].d(A)[sp].d(T)[sp].d([m5C])[sp].d([m5C])[sp].[moe]([m5C])p.[moe](A)p.[moe](G)[sp].[moe](G)}$$$$ (last 3' nucleoside missing) | 5.5 score 0-7 |
| RNA1{[moe](A)[sp].[moe](G)p.[moe](T)p.[moe]([m5C])p.[moe](A)p.d(T)[sp].d(G)[sp].d([m5C])[sp].d(T)[sp].d(T)[sp].d(A)[sp].d(T)[sp].d(A)[sp].d(A)[sp].d(A)[sp].[moe](G)p.[moe](T)p.[moe]([m5C])[sp].[moe]([m5C])}$$$$ (last 3' nucleoside missing) | 3.5 score 0-7 |
| RNA1{[moe](A)[sp].[moe](G)p.[moe](T)p.[moe]([m5C])p.[moe](T)p.d(T)[sp].d(G)[sp].d(T)[sp].d(T)[sp].d([m5C])[sp].d(A)[sp].d(G)[sp].d(T)[sp].d(G)[sp].d(T)[sp].[moe]([m5C])p.[moe]([m5C])p.[moe](T)[sp].[moe](T)}$$$$ (last 3' nucleoside missing) | 5 score 0-7 |
| RNA1{[moe](A)[sp].[moe](G)p.[moe]([m5C])p.[moe](A)p.[moe](T)p.d(G)[sp].d(A)[sp].d(T)[sp].d([m5C])[sp].d(T)[sp].d(T)[sp].d(G)[sp].d(T)[sp].d(G)[sp].d(T)[sp].[moe](A)p.[moe](T)p.[moe](A)[sp].[moe](T)}$$$$ (last 3' nucleoside missing) | 3 score 0-7 |
| RNA1{[moe](A)[sp].[moe](G)p.[moe]([m5C])p.[moe](A)p.[moe](T)p.d([m5C])[sp].d(A)[sp].d(T)[sp].d(T)[sp].d(G)[sp].d(G)[sp].d([m5C])[sp].d(G)[sp].d([m5C])[sp].d(A)[sp].[moe](T)p.[moe](G)p.[moe](G)[sp].[moe](G)}$$$$ (last 3' nucleoside missing) | 5 score 0-7 |
| RNA1{[moe](A)[sp].[moe](G)p.[moe]([m5C])p.[moe](A)p.[moe]([m5C])p.d(A)[sp].d(T)[sp].d(G)[sp].d(A)[sp].d(T)[sp].d(T)[sp].d(G)[sp].d(T)[sp].d(A)[sp].d(A)[sp].[moe](A)p.[moe]([m5C])p.[moe](T)[sp].[moe](A)}$$$$ (last 3' nucleoside missing) | 6 score 0-7 |
| RNA1{[moe](A)[sp].[moe](G)p.[moe]([m5C])p.[moe](T)p.[moe](T)p.[moe](A)p.d(G)[sp].d(A)[sp].d(G)[sp].d(T)[sp].d(T)[sp].d(T)[sp].d(T)[sp].d(T)[sp].d(G)[sp].d([m5C])[sp].[moe]([m5C])p.[moe](T)[sp].[moe](T)}$$$$ (last 3' nucleoside missing) | 5 score 0-7 |
| RNA1{[moe](A)[sp].[moe](G)p.[moe]([m5C])p.[moe](T)p.[moe](T)p.d(A)[sp].d(G)[sp].d(A)[sp].d(G)[sp].d(T)[sp].d(T)[sp].d(T)[sp].d(T)[sp].d(T)[sp].d(G)[sp].[moe]([m5C])p.[moe]([m5C])p.[moe](T)[sp].[moe](T)}$$$$ (last 3' nucleoside missing) | 5 score 0-7 |
| RNA1{[moe](A)[sp].[moe](G)p.[moe]([m5C])p.[moe](T)p.[moe]([m5C])p.d(A)[sp].d(T)[sp].d([m5C])[sp].d(A)[sp].d(A)[sp].d(G)[sp].d(G)[sp].d(T)[sp].d(A)[sp].d([m5C])[sp].[moe]([m5C])p.[moe](A)p.[moe](G)[sp].[moe](T)}$$$$ (last 3' nucleoside missing) | 4 score 0-7 |
| RNA1{[moe](A)[sp].[moe](G)p.[moe]([m5C])p.[moe](T)p.[moe]([m5C])p.d(T)[sp].d(G)[sp].d(T)[sp].d(T)[sp].d([m5C])[sp].d(G)[sp].d(A)[sp].d(T)[sp].d(G)[sp].d([m5C])[sp].[moe](A)p.[moe](G)p.[moe](G)[sp].[moe](A)}$$$$ (last 3' nucleoside missing) | 4 score 0-7 |
| RNA1{[moe](A)[sp].[moe](G)p.[moe]([m5C])p.[moe](T)p.d(T)[sp].d(A)[sp].d(G)[sp].d(A)[sp].d(G)[sp].d(T)[sp].d(T)[sp].d(T)[sp].d(T)[sp].d(T)[sp].[moe](G)p.[moe]([m5C])p.[moe]([m5C])p.[moe](T)[sp].[moe](T)}$$$$ (last 3' nucleoside missing) | 4 score 0-7 |
| RNA1{[moe](A)[sp].[moe](T)p.[moe](A)p.[moe](A)p.[moe](A)p.d([m5C])[sp].d(T)[sp].d(G)[sp].d(T)[sp].d(T)[sp].d(T)[sp].d(A)[sp].d([m5C])[sp].d(A)[sp].d(T)[sp].[moe]([m5C])p.[moe](T)p.[moe]([m5C])[sp].[moe]([m5C])}$$$$ (last 3' nucleoside missing) | 4 score 0-7 |
| RNA1{[moe](A)[sp].[moe](T)p.[moe](A)p.[moe]([m5C])p.[moe](G)p.d([m5C])[sp].d(G)[sp].d(G)[sp].d(T)[sp].d(G)[sp].d(A)[sp].d(A)[sp].d(T)[sp].d(T)[sp].d([m5C])[sp].[moe](T)p.[moe](G)p.[moe](T)[sp].[moe]([m5C])}$$$$ (last 3' nucleoside missing) | 1 score 0-7 |
| RNA1{[moe](A)[sp].[moe](T)p.[moe](A)p.[moe]([m5C])p.[moe](T)p.d([m5C])[sp].d(T)[sp].d([m5C])[sp].d([m5C])[sp].d(A)[sp].d(T)[sp].d(T)[sp].d(A)[sp].d(T)[sp].d(T)[sp].[moe](T)p.[moe]([m5C])p.[moe](T)[sp].[moe](T)}$$$$ (last 3' nucleoside missing) | 0 score 0-7 |
| RNA1{[moe](A)[sp].[moe](T)p.[moe](G)p.[moe](A)p.[moe](T)p.d([m5C])[sp].d(T)[sp].d(T)[sp].d(G)[sp].d(T)[sp].d(G)[sp].d(T)[sp].d(A)[sp].d(T)[sp].d(A)[sp].[moe](T)p.[moe](A)p.[moe](T)[sp].[moe](T)}$$$$ (last 3' nucleoside missing) | 6 score 0-7 |
| RNA1{[moe](A)[sp].[moe](T)p.[moe](G)p.[moe](T)p.[moe](A)p.d(G)[sp].d(T)[sp].d(T)[sp].d(A)[sp].d([m5C])[sp].d(A)[sp].d(T)[sp].d(G)[sp].d(T)[sp].d(A)[sp].[moe](A)p.[moe]([m5C])p.[moe]([m5C])[sp].[moe](A)}$$$$ (last 3' nucleoside missing) | 2 score 0-7 |
| RNA1{[moe](A)[sp].[moe](T)p.[moe](G)p.[moe]([m5C])p.[moe](A)p.d(A)[sp].d([m5C])[sp].d(T)[sp].d(T)[sp].d(A)[sp].d(A)[sp].d(T)[sp].d(A)[sp].d(A)[sp].d([m5C])[sp].[moe]([m5C])p.[moe](T)p.[moe](T)[sp].[moe](A)}$$$$ (last 3' nucleoside missing) | 0.25 score 0-7 |
| RNA1{[moe](A)[sp].[moe](T)p.[moe](G)p.[moe]([m5C])p.[moe](A)p.d(G)[sp].d(T)[sp].d(A)[sp].d([m5C])[sp].d(A)[sp].d(A)[sp].d([m5C])[sp].d(A)[sp].d(T)[sp].d(T)[sp].[moe]([m5C])p.[moe]([m5C])p.[moe](A)[sp].[moe](T)}$$$$ (last 3' nucleoside missing) | 0 score 0-7 |
| RNA1{[moe](A)[sp].[moe](T)p.[moe](G)p.[moe]([m5C])p.[moe](A)p.d([m5C])[sp].d(T)[sp].d(G)[sp].d([m5C])[sp].d(T)[sp].d(T)[sp].d(G)[sp].d([m5C])[sp].d([m5C])[sp].d(T)[sp].[moe](G)p.[moe](G)p.[moe](A)[sp].[moe](G)}$$$$ (last 3' nucleoside missing) | 5 score 0-7 |
| RNA1{[moe](A)[sp].[moe](T)p.[moe](G)p.[moe]([m5C])p.[moe](T)p.d(G)[sp].d(G)[sp].d(T)[sp].d(T)[sp].d([m5C])[sp].d([m5C])[sp].d(T)[sp].d(T)[sp].d(A)[sp].d([m5C])[sp].[moe](A)p.[moe](A)p.[moe](T)[sp].[moe](T)}$$$$ (last 3' nucleoside missing) | 0 score 0-7 |
| RNA1{[moe](A)[sp].[moe](T)p.[moe](T)p.[moe](T)p.[moe](T)p.d(G)[sp].d(A)[sp].d(A)[sp].d(T)[sp].d(T)[sp].d(A)[sp].d([m5C])[sp].d(A)[sp].d(A)[sp].d(T)[sp].[moe](G)p.[moe]([m5C])p.[moe](G)[sp].[moe](G)}$$$$ (last 3' nucleoside missing) | 0 score 0-7 |
| RNA1{[moe](A)[sp].[moe](T)p.[moe](T)p.[moe]([m5C])p.[moe](T)[sp].d(G)[sp].d(T)[sp].d(A)[sp].d([m5C])[sp].d(T)[sp].d(T)[sp].d(T)[sp].d(T)[sp].[moe]([m5C])p.[moe](T)p.[moe]([m5C])[sp].[moe](A)}$$$$ (last 3' nucleoside missing) | 0 score 0-7 |
